Experimental data published in ChEMBL document CHEMBL4507284, “Data for DCP probe BI-1230” (2021).

Tests used:
[1] = test system: Tyrosine-protein kinase ABL1 (Homo sapiens), P00519 [T315I]; conditions: Compound concentration 1000.0 nM
[2] = molecular target: Bone morphogenetic protein receptor type-1B (Homo sapiens) (UniProt O00238); conditions: Compound concentration 1000.0 nM
[3] = test system: Serine/threonine-protein kinase B-raf (Homo sapiens), P15056 [V600E]; conditions: Compound concentration 1000.0 nM
[4] = molecular target: Cyclin-dependent kinase 11B (Homo sapiens) (UniProt P21127); conditions: Compound concentration 1000.0 nM
[5] = molecular target: Cyclin-dependent kinase 19 (Homo sapiens) (UniProt Q9BWU1); conditions: Compound concentration 1000.0 nM
[6] = molecular target: Casein kinase I isoform alpha-like (Homo sapiens) (UniProt Q8N752); conditions: Compound concentration 1000.0 nM
[7] = molecular target: Casein kinase II subunit alpha (Homo sapiens) (UniProt P68400); conditions: Compound concentration 1000.0 nM
[8] = molecular target: Ephrin type-A receptor 4 (Homo sapiens) (UniProt P54764); conditions: Compound concentration 1000.0 nM
[9] = molecular target: Ephrin type-B receptor 2 (Homo sapiens) (UniProt P29323); conditions: Compound concentration 1000.0 nM
[10] = molecular target: Mitogen-activated protein kinase 1 (Homo sapiens) (UniProt P28482); conditions: Compound concentration 1000.0 nM
[11] = molecular target: Fibroblast growth factor receptor 4 (Homo sapiens) (UniProt P22455); conditions: Compound concentration 1000.0 nM
[12] = test system: Receptor-type tyrosine-protein kinase FLT3 (Homo sapiens), P36888 [D835V]; conditions: Compound concentration 1000.0 nM
[13] = test system: Receptor-type tyrosine-protein kinase FLT3 (Homo sapiens), P36888 [R834Q]; conditions: Compound concentration 1000.0 nM
[14] = molecular target: Tyrosine-protein kinase Fyn (Homo sapiens) (UniProt P06241); conditions: Compound concentration 1000.0 nM
[15] = molecular target: Serine/threonine-protein kinase haspin (Homo sapiens) (UniProt Q8TF76); conditions: Compound concentration 1000.0 nM
[16] = molecular target: Homeodomain-interacting protein kinase 4 (Homo sapiens) (UniProt Q8NE63); conditions: Compound concentration 1000.0 nM
[17] = molecular target: Interleukin-1 receptor-associated kinase 4 (Homo sapiens) (UniProt Q9NWZ3); conditions: Compound concentration 1000.0 nM
[18] = molecular target: Tyrosine-protein kinase JAK1 (Homo sapiens) (UniProt P23458); conditions: Compound concentration 1000.0 nM
[19] = molecular target: Tyrosine-protein kinase JAK2 (Homo sapiens) (UniProt O60674); conditions: Compound concentration 1000.0 nM
[20] = test system: Mast/stem cell growth factor receptor Kit (Homo sapiens), P10721 [A829P]; conditions: Compound concentration 1000.0 nM
[21] = test system: Mast/stem cell growth factor receptor Kit (Homo sapiens), P10721 [D816V]; conditions: Compound concentration 1000.0 nM
[22] = molecular target: Serine/threonine-protein kinase LATS1 (Homo sapiens) (UniProt O95835); conditions: Compound concentration 1000.0 nM
[23] = molecular target: Mitogen-activated protein kinase kinase kinase kinase 5 (Homo sapiens) (UniProt Q9Y4K4); conditions: Compound concentration 1000.0 nM
[24] = molecular target: MAP kinase-activated protein kinase 5 (Homo sapiens) (UniProt Q8IW41); conditions: Compound concentration 1000.0 nM
[25] = molecular target: Dual specificity mitogen-activated protein kinase kinase 5 (Homo sapiens) (UniProt Q13163); conditions: Compound concentration 1000.0 nM
[26] = molecular target: Dual specificity mitogen-activated protein kinase kinase 7 (Homo sapiens) (UniProt O14733); conditions: Compound concentration 1000.0 nM
[27] = molecular target: Serine/threonine-protein kinase MRCK beta (Homo sapiens) (UniProt Q9Y5S2); conditions: Compound concentration 1000.0 nM
[28] = molecular target: Myosin-IIIa (Homo sapiens) (UniProt Q8NEV4); conditions: Compound concentration 1000.0 nM
[29] = molecular target: Mitogen-activated protein kinase 13 (Homo sapiens) (UniProt O15264); conditions: Compound concentration 1000.0 nM
[30] = test system: Phosphatidylinositol 4,5-bisphosphate 3-kinase catalytic subunit alpha isoform (Homo sapiens), P42336 [C420R]; conditions: Compound concentration 1000.0 nM
[31] = molecular target: Phosphatidylinositol 5-phosphate 4-kinase type-2 gamma (Homo sapiens) (UniProt Q8TBX8); conditions: Compound concentration 1000.0 nM
[32] = molecular target: Receptor-interacting serine/threonine-protein kinase 1 (Homo sapiens) (UniProt Q13546); conditions: Compound concentration 1000.0 nM
[33] = molecular target: Ribosomal protein S6 kinase alpha-6 (Homo sapiens) (UniProt Q9UK32); conditions: Compound concentration 1000.0 nM
[34] = molecular target: Serine/threonine-protein kinase SBK1 (Homo sapiens) (UniProt Q52WX2); conditions: Compound concentration 1000.0 nM
[35] = molecular target: Serine/threonine-protein kinase Sgk2 (Homo sapiens) (UniProt Q9HBY8); conditions: Compound concentration 1000.0 nM
[36] = molecular target: STE20-like serine/threonine-protein kinase (Homo sapiens) (UniProt Q9H2G2); conditions: Compound concentration 1000.0 nM
[37] = molecular target: SRSF protein kinase 2 (Homo sapiens) (UniProt P78362); conditions: Compound concentration 1000.0 nM
[38] = molecular target: Angiopoietin-1 receptor (Homo sapiens) (UniProt Q02763); conditions: Compound concentration 1000.0 nM
[39] = molecular target: Serine/threonine-protein kinase tousled-like 1 (Homo sapiens) (UniProt Q9UKI8); conditions: Compound concentration 1000.0 nM
[40] = molecular target: NT-3 growth factor receptor (Homo sapiens) (UniProt Q16288); conditions: Compound concentration 1000.0 nM
[41] = molecular target: Serine/threonine-protein kinase ULK2 (Homo sapiens) (UniProt Q8IYT8); conditions: Compound concentration 1000.0 nM
[42] = molecular target: Phosphatidylinositol 3-kinase catalytic subunit type 3 (Homo sapiens) (UniProt Q8NEB9); conditions: Compound concentration 1000.0 nM
[43] = molecular target: Serine/threonine-protein kinase WNK1 (Homo sapiens) (UniProt Q9H4A3); conditions: Compound concentration 1000.0 nM
[44] = molecular target: D(3) dopamine receptor (Homo sapiens) (UniProt P35462); conditions: Compound concentration 10.0 uM
[45] = molecular target: Mu-type opioid receptor (Homo sapiens) (UniProt P35372); conditions: Compound concentration 10.0 uM

Phosphatidylinositol 4,5-bisphosphate 3-kinase catalytic subunit alpha isoform (Homo sapiens), P42336 [C420R], sequence (P42336 whole entry C420R, canonical isoform): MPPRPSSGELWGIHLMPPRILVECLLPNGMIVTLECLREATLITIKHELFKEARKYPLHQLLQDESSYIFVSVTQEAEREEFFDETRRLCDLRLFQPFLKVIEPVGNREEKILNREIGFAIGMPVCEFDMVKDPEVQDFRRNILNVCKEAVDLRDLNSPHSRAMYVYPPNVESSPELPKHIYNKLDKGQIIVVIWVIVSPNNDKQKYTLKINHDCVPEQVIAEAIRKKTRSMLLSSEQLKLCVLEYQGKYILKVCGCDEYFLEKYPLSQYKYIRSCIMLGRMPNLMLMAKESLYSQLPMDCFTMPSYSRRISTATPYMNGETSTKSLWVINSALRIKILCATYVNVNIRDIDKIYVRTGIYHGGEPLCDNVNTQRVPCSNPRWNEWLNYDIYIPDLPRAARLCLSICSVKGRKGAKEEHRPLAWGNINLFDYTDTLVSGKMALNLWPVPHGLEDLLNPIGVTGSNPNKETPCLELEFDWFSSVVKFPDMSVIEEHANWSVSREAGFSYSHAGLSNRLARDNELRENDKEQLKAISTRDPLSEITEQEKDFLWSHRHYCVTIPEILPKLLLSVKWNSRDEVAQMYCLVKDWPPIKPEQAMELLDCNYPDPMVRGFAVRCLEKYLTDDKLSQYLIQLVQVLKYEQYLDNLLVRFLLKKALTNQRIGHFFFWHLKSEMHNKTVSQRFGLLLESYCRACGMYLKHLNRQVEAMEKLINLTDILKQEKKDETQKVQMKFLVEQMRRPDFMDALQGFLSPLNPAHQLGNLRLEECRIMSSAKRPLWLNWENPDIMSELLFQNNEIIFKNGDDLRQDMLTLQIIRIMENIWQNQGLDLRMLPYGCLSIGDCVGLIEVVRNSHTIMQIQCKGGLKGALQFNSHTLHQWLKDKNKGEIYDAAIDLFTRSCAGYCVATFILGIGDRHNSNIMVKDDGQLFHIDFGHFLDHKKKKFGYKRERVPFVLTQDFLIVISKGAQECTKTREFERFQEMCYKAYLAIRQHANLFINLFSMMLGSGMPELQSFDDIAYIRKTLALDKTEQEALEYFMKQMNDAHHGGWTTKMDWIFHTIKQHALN
Casein kinase I isoform alpha-like (Homo sapiens), sequence (Q8N752 whole entry, canonical isoform): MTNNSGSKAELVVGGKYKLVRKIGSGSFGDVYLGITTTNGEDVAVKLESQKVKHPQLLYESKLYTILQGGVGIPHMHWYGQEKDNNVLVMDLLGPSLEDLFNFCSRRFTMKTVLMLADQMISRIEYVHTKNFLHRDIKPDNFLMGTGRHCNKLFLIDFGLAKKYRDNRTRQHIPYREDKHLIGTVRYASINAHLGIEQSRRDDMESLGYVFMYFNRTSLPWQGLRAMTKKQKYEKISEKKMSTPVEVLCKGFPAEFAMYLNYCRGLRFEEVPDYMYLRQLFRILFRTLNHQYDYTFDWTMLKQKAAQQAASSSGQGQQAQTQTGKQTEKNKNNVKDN
Interleukin-1 receptor-associated kinase 4 (Homo sapiens), sequence (Q9NWZ3 whole entry): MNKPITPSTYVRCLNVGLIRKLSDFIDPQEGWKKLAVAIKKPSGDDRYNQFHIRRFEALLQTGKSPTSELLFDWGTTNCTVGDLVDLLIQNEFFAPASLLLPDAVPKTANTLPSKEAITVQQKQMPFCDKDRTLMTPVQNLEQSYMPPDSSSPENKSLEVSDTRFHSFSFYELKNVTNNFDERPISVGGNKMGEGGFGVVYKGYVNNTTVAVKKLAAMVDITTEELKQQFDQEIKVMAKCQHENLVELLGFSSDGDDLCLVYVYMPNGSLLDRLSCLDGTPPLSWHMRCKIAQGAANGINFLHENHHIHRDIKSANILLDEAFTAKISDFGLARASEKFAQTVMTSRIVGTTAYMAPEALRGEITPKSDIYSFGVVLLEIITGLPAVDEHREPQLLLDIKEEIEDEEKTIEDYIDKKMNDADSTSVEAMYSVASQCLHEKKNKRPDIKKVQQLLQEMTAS
Serine/threonine-protein kinase tousled-like 1 (Homo sapiens), sequence (Q9UKI8 whole entry): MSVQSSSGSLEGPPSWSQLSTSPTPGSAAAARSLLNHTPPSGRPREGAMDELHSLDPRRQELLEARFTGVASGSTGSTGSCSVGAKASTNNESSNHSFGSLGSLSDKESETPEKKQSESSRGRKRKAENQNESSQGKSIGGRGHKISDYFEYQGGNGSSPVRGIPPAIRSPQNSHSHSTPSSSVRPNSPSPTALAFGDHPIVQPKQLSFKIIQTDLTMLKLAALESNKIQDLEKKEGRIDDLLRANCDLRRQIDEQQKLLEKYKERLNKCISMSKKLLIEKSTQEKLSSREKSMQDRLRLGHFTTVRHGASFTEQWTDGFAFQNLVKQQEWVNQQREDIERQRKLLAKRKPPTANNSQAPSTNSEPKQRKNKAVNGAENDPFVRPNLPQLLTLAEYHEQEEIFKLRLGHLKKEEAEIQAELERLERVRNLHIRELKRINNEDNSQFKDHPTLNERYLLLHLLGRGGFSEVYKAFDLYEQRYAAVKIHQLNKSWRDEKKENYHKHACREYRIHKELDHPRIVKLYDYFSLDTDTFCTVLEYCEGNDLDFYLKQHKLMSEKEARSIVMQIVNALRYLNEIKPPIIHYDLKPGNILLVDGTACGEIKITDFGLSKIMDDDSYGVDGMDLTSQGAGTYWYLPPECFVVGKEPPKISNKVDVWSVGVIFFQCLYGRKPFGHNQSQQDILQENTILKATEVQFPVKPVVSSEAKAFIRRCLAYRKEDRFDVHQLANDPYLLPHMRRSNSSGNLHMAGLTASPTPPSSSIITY
Myosin-IIIa (Homo sapiens), sequence (Q8NEV4 whole entry): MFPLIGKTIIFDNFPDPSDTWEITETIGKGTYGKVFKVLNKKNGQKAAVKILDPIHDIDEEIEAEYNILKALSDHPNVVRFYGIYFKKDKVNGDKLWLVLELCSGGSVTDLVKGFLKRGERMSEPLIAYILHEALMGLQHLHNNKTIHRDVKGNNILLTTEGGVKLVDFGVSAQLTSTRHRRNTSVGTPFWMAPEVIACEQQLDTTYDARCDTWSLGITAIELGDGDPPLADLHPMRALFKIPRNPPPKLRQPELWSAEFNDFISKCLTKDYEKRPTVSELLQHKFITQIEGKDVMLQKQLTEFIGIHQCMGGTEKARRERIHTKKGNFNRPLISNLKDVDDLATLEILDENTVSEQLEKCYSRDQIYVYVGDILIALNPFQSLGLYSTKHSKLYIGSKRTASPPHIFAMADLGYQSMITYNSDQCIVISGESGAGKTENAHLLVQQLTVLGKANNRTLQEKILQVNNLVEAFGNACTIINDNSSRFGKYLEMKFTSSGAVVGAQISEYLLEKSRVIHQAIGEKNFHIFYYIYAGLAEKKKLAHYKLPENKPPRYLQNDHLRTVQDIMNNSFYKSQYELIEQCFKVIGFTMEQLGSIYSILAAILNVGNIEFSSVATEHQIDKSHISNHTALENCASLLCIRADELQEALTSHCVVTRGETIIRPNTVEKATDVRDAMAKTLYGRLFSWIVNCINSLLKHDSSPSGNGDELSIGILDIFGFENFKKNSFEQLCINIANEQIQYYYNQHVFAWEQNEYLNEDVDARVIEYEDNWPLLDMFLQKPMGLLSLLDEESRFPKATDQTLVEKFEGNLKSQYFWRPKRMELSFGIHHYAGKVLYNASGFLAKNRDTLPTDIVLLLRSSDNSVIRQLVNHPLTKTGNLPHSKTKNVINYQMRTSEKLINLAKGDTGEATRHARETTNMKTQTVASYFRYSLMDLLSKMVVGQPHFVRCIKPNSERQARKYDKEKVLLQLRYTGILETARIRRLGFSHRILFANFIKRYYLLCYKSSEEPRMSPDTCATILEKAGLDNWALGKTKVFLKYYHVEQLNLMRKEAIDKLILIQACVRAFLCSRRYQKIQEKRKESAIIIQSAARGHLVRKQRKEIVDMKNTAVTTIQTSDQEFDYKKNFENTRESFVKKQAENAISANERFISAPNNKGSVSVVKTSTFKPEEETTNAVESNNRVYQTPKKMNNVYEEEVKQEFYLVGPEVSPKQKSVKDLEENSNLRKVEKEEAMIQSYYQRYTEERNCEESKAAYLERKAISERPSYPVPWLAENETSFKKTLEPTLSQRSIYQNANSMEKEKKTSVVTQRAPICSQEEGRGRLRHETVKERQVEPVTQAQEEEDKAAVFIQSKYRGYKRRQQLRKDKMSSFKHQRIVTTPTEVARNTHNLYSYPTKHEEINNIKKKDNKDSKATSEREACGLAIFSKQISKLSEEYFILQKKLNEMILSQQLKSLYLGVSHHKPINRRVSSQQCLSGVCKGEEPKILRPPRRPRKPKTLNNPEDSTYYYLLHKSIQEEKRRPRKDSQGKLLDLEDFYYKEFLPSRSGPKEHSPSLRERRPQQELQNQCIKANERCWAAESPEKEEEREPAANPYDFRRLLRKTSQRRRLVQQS
Fibroblast growth factor receptor 4 (Homo sapiens), sequence (P22455 22-802 limits assumed): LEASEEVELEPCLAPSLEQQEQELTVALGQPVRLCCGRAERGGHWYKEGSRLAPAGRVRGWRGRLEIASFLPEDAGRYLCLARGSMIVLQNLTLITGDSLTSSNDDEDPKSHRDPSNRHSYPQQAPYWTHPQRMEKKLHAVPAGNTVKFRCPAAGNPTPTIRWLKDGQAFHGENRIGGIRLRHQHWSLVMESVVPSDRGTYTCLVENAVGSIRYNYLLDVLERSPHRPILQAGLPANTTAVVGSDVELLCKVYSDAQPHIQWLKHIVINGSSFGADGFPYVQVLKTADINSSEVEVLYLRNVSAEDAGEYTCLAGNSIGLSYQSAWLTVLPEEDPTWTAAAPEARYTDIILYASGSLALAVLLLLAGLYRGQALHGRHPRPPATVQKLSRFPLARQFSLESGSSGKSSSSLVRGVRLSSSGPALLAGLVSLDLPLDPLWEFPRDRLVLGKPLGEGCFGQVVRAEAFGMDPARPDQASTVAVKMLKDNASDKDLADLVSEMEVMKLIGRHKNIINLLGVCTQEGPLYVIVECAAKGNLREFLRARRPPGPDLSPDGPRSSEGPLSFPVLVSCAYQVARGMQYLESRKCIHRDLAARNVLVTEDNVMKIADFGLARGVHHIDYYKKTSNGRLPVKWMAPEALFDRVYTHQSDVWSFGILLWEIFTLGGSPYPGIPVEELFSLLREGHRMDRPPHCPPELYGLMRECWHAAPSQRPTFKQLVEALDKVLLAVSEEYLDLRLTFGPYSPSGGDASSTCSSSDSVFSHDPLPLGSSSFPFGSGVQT

COc1ccc2c(O[C@@H]3C[C@H]4C(=O)N[C@]5(C(=O)O)CC5/C=C\CCCCC[C@H](NC(=O)OC5CCCC5)C(=O)N4C3)cc(-c3csc(NC(=O)C(C)C)n3)nc2c1C (stereo not given in full) [BI 1230]
inactive: residual activity [1] 92% | residual activity [2] 77% | residual activity [3] 77% | residual activity [4] 99% | residual activity [5] 90% | residual activity [6] 100% | residual activity [7] 81% | residual activity [8] 100% | residual activity [9] 98% | residual activity [10] 89% | residual activity [11] 100% | residual activity [12] 79% | residual activity [13] 92% | residual activity [14] 100% | residual activity [15] 97% | residual activity [16] 99% | residual activity [17] 71% | residual activity [18] 100% | residual activity [19] 64% | residual activity [20] 100% | residual activity [21] 95% | residual activity [22] 100% | residual activity [23] 100% | residual activity [24] 88% | residual activity [25] 71% | residual activity [26] 81% | residual activity [27] 96% | residual activity [28] 100% | residual activity [29] 100% | residual activity [30] 100% | residual activity [31] 89% | residual activity [32] 100% | residual activity [33] 100% | residual activity [34] 98% | residual activity [35] 87% | residual activity [36] 100% | residual activity [37] 100% | residual activity [38] 100% | residual activity [39] 100% | residual activity [40] 97% | residual activity [41] 95% | residual activity [42] 100% | residual activity [43] 100% | inhibition [44] -9.2% | inhibition [45] 16.6%

O=C(N[C@H]1CCCCC/C=C\C2C[C@@]2(C(=O)O)NC(=O)[C@@H]2C[C@@H](Oc3ccncc3)CN2C1=O)OC1CCCC1 (stereo not given in full) [BI 1675]
inactive: residual activity [1] 100% | residual activity [2] 95% | residual activity [3] 93% | residual activity [4] 100% | residual activity [5] 91% | residual activity [6] 100% | residual activity [7] 83% | residual activity [8] 93% | residual activity [9] 91% | residual activity [10] 72% | residual activity [11] 100% | residual activity [12] 92% | residual activity [13] 93% | residual activity [14] 100% | residual activity [15] 100% | residual activity [16] 100% | residual activity [17] 88% | residual activity [18] 96% | residual activity [19] 100% | residual activity [20] 98% | residual activity [21] 90% | residual activity [22] 99% | residual activity [23] 100% | residual activity [24] 96% | residual activity [25] 89% | residual activity [26] 91% | residual activity [27] 100% | residual activity [28] 94% | residual activity [29] 96% | residual activity [30] 100% | residual activity [31] 100% | residual activity [32] 88% | residual activity [33] 86% | residual activity [34] 100% | residual activity [35] 100% | residual activity [36] 100% | residual activity [37] 64% | residual activity [38] 100% | residual activity [39] 82% | residual activity [40] 100% | residual activity [41] 100% | residual activity [42] 100% | residual activity [43] 90% | inhibition [44] 12.7% | inhibition [45] -8.64%
